Measurements reported in patent publication US10975078B2, “Fused indazole pyridone compounds as antivirals” (priority 2017, dated 2021).

tested on: HBsAg secretion, HepG2-Clone42 cells (Tet-inducible HBV-expressing, HBV ayw strain); test: HBsAg assay (HBsAg ELISA, secreted HBV sAg from HepG2-Clone42 cells); format: cell-based; conditions: Hepatitis B virus, read-out: HBsAg (nM), EC50 = concentration at which HBsAg secretion was reduced 50% compared to DMSO control
Procedure: HepG2-Clone42, a Tet-inducible HBV-expressing cell line with a stably integrated 1.3 mer copy of the HBV ayw strain, was generated based on the Tet-inducible HepAD38 cell line with slight modifications. Ladner S K, et al., Antimicrobial Agents and Chemotherapy. 41(8):1715-1720 (1997). HepG2-Clone42 cells were cultured in DMEM/F-12+Glutamax™ (Life Technologies, Carlsbad, Calif., USA), supplemented with 10% fetal bovine serum (Life Technologies), G-418 (Corning, Manassas, Va., USA) at a final concentration of 0.5 mg/mL, and 5 μg/mL Doxycycline (Sigma, St. Louis, Mo., USA) and maintained in 5% CO2 at 37° C.
HepG2-Clone42 cells were seeded into black clear-bottom 96-well plates at a concentration of 6.0×10^4 cells/well. 24 hours post-seeding, the cells were treated with 200 μl/well of media containing five-fold serial dilutions of compounds in DMSO. DMSO alone was used as the no drug control. The final DMSO concentration in all wells was 0.5%.
The HBsAg ELISA kit (Alpha Diagnostic International, San Antonio, Tex., USE, Catalog #4110) was used to determine the level (semi-quantitative) of secreted HBV sAg. The HBSAg ELISA assay was performed following the manufacturer's protocol as described.
Step 1. Pipet 100 μL each of compound or DMSO treated samples into HBsAg ELISA plates. Seal plates and incubate at room temp for 60 minutes.
Step 2. Aspirate samples and wash three times with Wash Buffer. Dispense 100 μL of antibody-HRP conjugate to each well. Incubate at room temp for 30 minutes.
Step 3. Aspirate samples and wash three times with Wash Buffer. Add 100 μL of TMB Substrate to all wells and incubate 15 minutes at room temp.
Step 4. Dispense 100 μL of Stop Solution to each well. Measure absorbance of ELISA plate at 450 nm.
Dose-response curves were generated and the EC50 value was defined as the compound concentration at which HBsAg secretion was reduced 50% compared to the DMSO control.
EC50 values were determined as follows:
Determine the percent of HBsAg secretion inhibition. Calculate the percent inhibition on of HBsAg secretion inhibition using the following equation: […]
where XC is the absorbance signal from compound-treated well; MB is average absorbance signal (background signal) for column 12 (no cells+HBsAg ELISA sample buffer) and MD is average absorbance signal from DMSO-treated wells. Then calculate EC50 values by non-linear regression using a four parameter curve logistic equation.
The curve fit model employed is XLFit Dose Response One Site Model 204: y=(A+((B−A)/(1+(10^((C−x)*D))))) where A is the minimum y value, B is the maximum y value, C is the log EC50 value, and D is the slope factor. In the following table+≥100 nM; 100 nM>++≥1 nM; 1 nM>+++

| Structure (SMILES) | EC50 [nM] |
| --- | --- |
| CCOC(=O)c1cn2c(cc1=O)-c1c3cccc(OCCCOC)c3nn1CC2C(C)(C)C (racemic) [Example 2.1i, ethyl 6-(tert-butyl)-10-(3-methoxypropoxy)-2-oxo-6,7-dihydro-2H-pyrido[2′,1′:3,4]pyrazino[1,2-b]indazole-3-carboxylate] | 1 to 100 |
| CC[C@H](C)COc1cccc2c3n(nc12)CC(C(C)(C)C)n1cc(C(=O)O)c(=O)cc1-3 (mixture of isomers) [Example 2.6, 6-(tert-butyl)-10-((S)-2-methylbutoxy)-2-oxo-6,7-dihydro-2H-pyrido[2′,1′:3,4]pyrazino[1,2-b]indazole-3-carboxylic Acid] | < 1 |
| CCC(C)Oc1cccc2c3n(nc12)CC(C(C)(C)C)n1cc(C(=O)O)c(=O)cc1-3 (racemic) [Example 2.7, 10-(sec-butoxy)-6-(tert-butyl)-2-oxo-6,7-dihydro-2H-pyrido[2′,1′:3,4]pyrazino[1,2-b]indazole-3-carboxylic acid] | < 1 |
| CC(C)(C)C1Cn2nc3c(OCC4CCOC4)cccc3c2-c2cc(=O)c(C(=O)O)cn21 (racemic) [Example 2.8, 6-(tert-butyl)-2-oxo-10-((tetrahydrofuran-3-yl)methoxy)-6,7-dihydro-2H-pyrido[2′,1′:3,4]pyrazino[1,2-b]indazole-3-carboxylic Acid] | < 1 |
| CC(C)(C)C1Cn2nc3c(OCCOC(F)(F)F)cccc3c2-c2cc(=O)c(C(=O)O)cn21 (racemic) [Example 2.9, 6-(tert-butyl)-2-oxo-10-(2-(trifluoromethoxy)ethoxy)-6,7-dihydro-2H-pyrido[2′,1′:3,4]pyrazino[1,2-b]indazole-3-carboxylic Acid] | < 1 |
| CC(C)(C)C1Cn2nc3c(OCC(F)F)cccc3c2-c2cc(=O)c(C(=O)O)cn21 (racemic) [Example 2.10, 6-(tert-butyl)-10-(2,2-difluoroethoxy)-2-oxo-6,7-dihydro-2H-pyrido[2′,1′:3,4]pyrazino[1,2-b]indazole-3-carboxylic Acid] | < 1 |
| CCCOc1cccc2c3n(nc12)CC(C(C)(C)C)n1cc(C(=O)O)c(=O)cc1-3 (racemic) [Example 2.11, 6-(tert-butyl)-2-oxo-10-propoxy-6,7-dihydro-2H-pyrido[2′,1′:3,4]pyrazino[1,2-b]indazole-3-carboxylic Acid] | < 1 |
| COCCOCCOc1cccc2c3n(nc12)CC(C(C)(C)C)n1cc(C(=O)O)c(=O)cc1-3 (racemic) [Example 2.12, 6-(tert-butyl)-10-(2-(2-methoxyethoxy)ethoxy)-2-oxo-6,7-dihydro-2H-pyrido[2′,1′:3,4]pyrazino[1,2-b]indazole-3-carboxylic Acid] | 1 to 100 |
| COCC(COc1cccc2c3n(nc12)CC(C(C)(C)C)n1cc(C(=O)O)c(=O)cc1-3)OC (racemic) [Example 2.13, 6-(tert-butyl)-10-(2,3-dimethoxypropoxy)-2-oxo-6,7-dihydro-2H-pyrido[2′,1′:3,4]pyrazino[1,2-b]indazole-3-carboxylic Acid] | 1 to 100 |
| CCOCCCOc1cccc2c3n(nc12)CC(C(C)(C)C)n1cc(C(=O)O)c(=O)cc1-3 (racemic) [Example 2.14, 6-(tert-butyl)-10-(3-ethoxypropoxy)-2-oxo-6,7-dihydro-2H-pyrido[2′,1′:3,4]pyrazino[1,2-b]indazole-3-carboxylic Acid] | < 1 |
| CC(C)OCCOc1cccc2c3n(nc12)CC(C(C)(C)C)n1cc(C(=O)O)c(=O)cc1-3 (racemic) [Example 2.15, 6-(tert-butyl)-10-(2-isopropoxyethoxy)-2-oxo-6,7-dihydro-2H-pyrido[2′,1′:3,4]pyrazino[1,2-b]indazole-3-carboxylic Acid] | < 1 |
| CC(C)COc1cccc2c3n(nc12)CC(C(C)(C)C)n1cc(C(=O)O)c(=O)cc1-3 (racemic) [Example 2.16, 6-(tert-butyl)-10-isobutoxy-2-oxo-6,7-dihydro-2H-pyrido[2′,1′:3,4]pyrazino[1,2-b]indazole-3-carboxylic Acid] | < 1 |
